These results are taken from ChEMBL document CHEMBL4613208, “Isatin derivatives and their anti-bacterial activities” (Eur J Med Chem, 2019).

≈ marks a conversion by molar mass, not a printed value.

The test system of one assay is Staphylococcus aureus. Kind of assay: Antibacterial activity against Staphylococcus aureus assessed as zone of inhibition at 100 ug/ml. The format is functional. The conditions noted are these: for zone of inhibition at 100 µg/mL: read-out: IZ.
The subject of assay [1] is Pseudomonas aeruginosa. Kind of assay: Antibacterial activity against Pseudomonas aeruginosa assessed as zone of inhibition at 100 ug/ml. To be noted: for zone of inhibition at 100 µg/mL: read-out: IZ. The format is functional.
Another assay relates to Escherichia coli. Kind of assay: Antibacterial activity against Escherichia coli assessed as zone of inhibition at 100 ug/ml. To be noted: for zone of inhibition at 100 µg/mL: read-out: IZ. The format is functional.
The test system of a further assay is Bacillus cereus. In words: Antibacterial activity against Bacillus cereus assessed as zone of inhibition at 100 ug/ml. The format is functional. To be noted: for zone of inhibition at 100 µg/mL: read-out: IZ.
For another assay, the system named is Salmonella typhi. In words: Antibacterial activity against Salmonella typhi. The conditions noted are these: Salmonella enterica. The format is functional, Salmonella enterica subsp. enterica serovar Typhi.
Assay [2] relates to Pseudomonas aeruginosa. Kind of assay: Antibacterial activity against Pseudomonas aeruginosa. The format is functional, organism-based.

As for `Cc1nc2ccccc2cc1C(=O)N/N=C1\C(=O)Nc2c(Br)cc(Br)cc21`, the zone of inhibition at 100 µg/mL in the assay with Staphylococcus aureus, in the assay on Pseudomonas aeruginosa [1], in the assay with Escherichia coli and in the assay with Bacillus cereus was 6 to 19 mm each time.

As usually defined, the MIC is the least concentration at which growth counts as inhibited. Consider `O=C(CN1C(=O)/C(=N\c2ccccc2)c2ccccc21)Nc1ccccc1`, for which the MIC against Salmonella typhi and against Pseudomonas aeruginosa [2] was 3 to 324 nM (≈ 1.07 to 115 ng/mL) in each case.

Turning to `Cc1ccc(NC(=O)CN2C(=O)/C(=N\c3ccccc3)c3ccccc32)cc1C`, the MIC against Salmonella typhi and in the assay with Pseudomonas aeruginosa [2] was 3 to 324 nM (≈ 1.15 to 124 ng/mL) throughout.

As for `Cc1ccc(C)c(/N=C2\C(=O)N(CC(=O)Nc3ccccc3)c3ccccc32)c1`, the MIC against Salmonella typhi and against Pseudomonas aeruginosa [2] was 3 to 324 nM (≈ 1.15 to 124 ng/mL) in each case.

As to `CN1CCN(CN2C(=O)/C(=N\NC(=O)COc3ccc(N4C(=O)CSC4c4ccccc4)c4cccnc34)c3ccccc32)CC1` (stereo unspecified), the zone of inhibition at 100 µg/mL in the assay with Staphylococcus aureus, in the assay with Pseudomonas aeruginosa [1], with Escherichia coli and with Bacillus cereus was 6 to 19 mm throughout.

As for `Cc1ccc(C)c(/N=C2\C(=O)N(CC(=O)Nc3ccccc3C)c3ccccc32)c1`, the MIC against Salmonella typhi and in the assay with Pseudomonas aeruginosa [2] was 3 to 324 nM (≈ 1.19 to 129 ng/mL) in each case.

As to `Cc1nc2ccccc2cc1C(=O)N/N=C1\C(=O)Nc2ccc(F)c(Cl)c21`, the zone of inhibition at 100 µg/mL in the assay with Staphylococcus aureus, with Pseudomonas aeruginosa [1], in the assay on Escherichia coli and in the assay on Bacillus cereus was 6 to 19 mm each time.

For `O=C(COc1ccc(N2C(=O)C(Cl)C2c2ccc(Br)cc2)c2cccnc12)N/N=C1\C(=O)N(CN2CCCCC2)c2ccccc21` (stereo unspecified), the zone of inhibition at 100 µg/mL in the assay with Staphylococcus aureus, in the assay on Pseudomonas aeruginosa [1], in the assay on Escherichia coli and in the assay on Bacillus cereus was 6 to 19 mm throughout.

For `Cc1nc2ccccc2cc1C(=O)N/N=C1\C(=O)Nc2ccc(Cl)c(Cl)c21`, the zone of inhibition at 100 µg/mL in the assay on Staphylococcus aureus, in the assay with Pseudomonas aeruginosa [1], with Escherichia coli and with Bacillus cereus was 6 to 19 mm in each case.

Take `Cc1ccc(NC(=O)CN2C(=O)/C(=N\c3ccccc3)c3ccccc32)c(C)c1`: the MIC against Salmonella typhi and with Pseudomonas aeruginosa [2] was 3 to 324 nM (≈ 1.15 to 124 ng/mL) in each case.

Regarding `Cc1ccc(NC(=O)CN2C(=O)/C(=N\c3cc(C)ccc3C)c3ccccc32)c(C)c1`, the MIC in the assay on Salmonella typhi and against Pseudomonas aeruginosa [2] was 3 to 15 nM (≈ 1.23 to 6.17 ng/mL) in each case.

For the compound `COc1cccc(NC(=O)CN2C(=O)/C(=N\c3ccccc3)c3ccccc32)c1`, the MIC against Salmonella typhi and with Pseudomonas aeruginosa [2] was 3 to 324 nM (≈ 1.16 to 125 ng/mL) each time.

For the compound `Cc1ccc(C)c(NC(=O)CN2C(=O)/C(=N\c3ccccc3)c3ccccc32)c1`, the MIC in the assay with Salmonella typhi and against Pseudomonas aeruginosa [2] was 3 to 324 nM (≈ 1.15 to 124 ng/mL) each time.

In the case of `Cc1nc2ccccc2cc1C(=O)N/N=C1\C(=O)Nc2c(Br)cccc21`, the zone of inhibition at 100 µg/mL in the assay with Staphylococcus aureus, in the assay on Pseudomonas aeruginosa [1], in the assay on Escherichia coli and in the assay with Bacillus cereus was 6 to 19 mm in each case.

For the compound `O=C(COc1ccc(N2C(=O)C(Cl)C2c2ccc([N+](=O)[O-])cc2)c2cccnc12)N/N=C1\C(=O)N(CN2CCCCC2)c2ccccc21` (stereo unspecified), the zone of inhibition at 100 µg/mL in the assay with Staphylococcus aureus, with Pseudomonas aeruginosa [1], with Escherichia coli and in the assay with Bacillus cereus was 6 to 19 mm each time.

On to `Cc1nc2ccccc2cc1C(=O)N/N=C1\C(=O)Nc2ccc([N+](=O)[O-])cc21`, for which the zone of inhibition at 100 µg/mL in the assay on Staphylococcus aureus, in the assay with Pseudomonas aeruginosa [1], with Escherichia coli and with Bacillus cereus was 6 to 19 mm in each case.

In the case of `CN1CCN(CN2C(=O)/C(=N\NC(=O)COc3ccc(N4C(=O)C(Cl)C4c4ccccc4)c4cccnc34)c3ccccc32)CC1` (stereo unspecified), the zone of inhibition at 100 µg/mL in the assay with Staphylococcus aureus, in the assay with Pseudomonas aeruginosa [1], in the assay with Escherichia coli and in the assay with Bacillus cereus was 6 to 19 mm in each case.

For the compound `COc1ccc(C2C(Cl)C(=O)N2c2ccc(OCC(=O)N/N=C3\C(=O)N(CN4CCCCC4)c4ccccc43)c3ncccc23)cc1` (stereo unspecified), the zone of inhibition at 100 µg/mL in the assay with Staphylococcus aureus, with Pseudomonas aeruginosa [1], in the assay on Escherichia coli and in the assay with Bacillus cereus was 6 to 19 mm in each case.

On to `Cc1ccc(C)c(/N=C2\C(=O)N(CC(=O)Nc3cc(C)ccc3C)c3ccccc32)c1`, for which the MIC with Salmonella typhi and against Pseudomonas aeruginosa [2] was 3 to 324 nM (≈ 1.23 to 133 ng/mL) each time.

With `COc1ccc(C2SCC(=O)N2c2ccc(OCC(=O)N/N=C3\C(=O)N(CN4CCCCC4)c4ccccc43)c3ncccc23)cc1` (stereo unspecified), the zone of inhibition at 100 µg/mL with Staphylococcus aureus, in the assay with Pseudomonas aeruginosa [1], with Escherichia coli and with Bacillus cereus was 6 to 19 mm in each case.

GENTAMICIN: the inhibition zone (IZ) in the assay on Staphylococcus aureus, with Pseudomonas aeruginosa [1], in the assay with Escherichia coli and with Bacillus cereus was 19 to 27 mm in each case.

For `Cc1nc2ccccc2cc1C(=O)N/N=C1\C(=O)Nc2c(Br)ccc(Br)c21`, the zone of inhibition at 100 µg/mL in the assay with Staphylococcus aureus, in the assay on Pseudomonas aeruginosa [1], with Escherichia coli and in the assay on Bacillus cereus was 6 to 19 mm in each case.

On to `COc1cccc(NC(=O)CN2C(=O)/C(=N\c3cc(C)ccc3C)c3ccccc32)c1`, for which the MIC with Salmonella typhi and against Pseudomonas aeruginosa [2] was 3 to 15 nM (≈ 1.24 to 6.2 ng/mL) in each case.

`O=C(COc1ccc(N2C(=O)C(Cl)C2c2ccccc2)c2cccnc12)N/N=C1\C(=O)N(CN2CCCCC2)c2ccccc21` (stereo unspecified): the zone of inhibition at 100 µg/mL in the assay on Staphylococcus aureus, in the assay with Pseudomonas aeruginosa [1], in the assay with Escherichia coli and in the assay with Bacillus cereus was 6 to 19 mm throughout.

Turning to `O=C(COc1ccc(N2C(=O)CSC2c2ccc(Br)cc2)c2cccnc12)N/N=C1\C(=O)N(CN2CCCCC2)c2ccccc21` (stereo unspecified), the zone of inhibition at 100 µg/mL in the assay on Staphylococcus aureus, in the assay on Pseudomonas aeruginosa [1], with Escherichia coli and in the assay with Bacillus cereus was 6 to 19 mm throughout.

As for `Cc1nc2ccccc2cc1C(=O)N/N=C1\C(=O)Nc2c(Cl)cccc21`, the zone of inhibition at 100 µg/mL in the assay on Staphylococcus aureus, in the assay on Pseudomonas aeruginosa [1], with Escherichia coli and with Bacillus cereus was 6 to 19 mm in each case.

`Cc1ccc(C2C(Cl)C(=O)N2c2ccc(OCC(=O)N/N=C3\C(=O)N(CN4CCCCC4)c4ccccc43)c3ncccc23)cc1` (stereo unspecified): the zone of inhibition at 100 µg/mL with Staphylococcus aureus, in the assay with Pseudomonas aeruginosa [1], with Escherichia coli and with Bacillus cereus was 6 to 19 mm each time.

Regarding `O=C(COc1ccc(N2C(=O)C(Cl)C2c2ccc(Cl)cc2)c2cccnc12)N/N=C1\C(=O)N(CN2CCCCC2)c2ccccc21` (stereo unspecified), the zone of inhibition at 100 µg/mL in the assay on Staphylococcus aureus, in the assay on Pseudomonas aeruginosa [1], in the assay with Escherichia coli and with Bacillus cereus was 6 to 19 mm in each case.

Turning to `Cc1nc2ccccc2cc1C(=O)N/N=C1\C(=O)Nc2ccccc21`, the zone of inhibition at 100 µg/mL in the assay on Staphylococcus aureus, in the assay with Pseudomonas aeruginosa [1], in the assay with Escherichia coli and in the assay on Bacillus cereus was 6 to 19 mm each time.

For `Cc1nc2ccccc2cc1C(=O)N/N=C1\C(=O)Nc2c1ccc(Cl)c2Cl`, the zone of inhibition at 100 µg/mL in the assay with Staphylococcus aureus, with Pseudomonas aeruginosa [1], in the assay with Escherichia coli and in the assay with Bacillus cereus was 6 to 19 mm throughout.

In the case of `O=C(COc1ccc(N2C(=O)CSC2c2ccccc2)c2cccnc12)N/N=C1\C(=O)N(CN2CCCCC2)c2ccccc21` (stereo unspecified), the zone of inhibition at 100 µg/mL in the assay on Staphylococcus aureus, in the assay with Pseudomonas aeruginosa [1], in the assay on Escherichia coli and in the assay with Bacillus cereus was 6 to 19 mm throughout.

As to `O=C(COc1ccc(N2C(=O)C(Cl)C2c2ccccc2)c2cccnc12)N/N=C1\C(=O)N(CN2CCOCC2)c2ccccc21` (stereo unspecified), the zone of inhibition at 100 µg/mL in the assay with Staphylococcus aureus, with Pseudomonas aeruginosa [1], in the assay on Escherichia coli and in the assay with Bacillus cereus was 6 to 19 mm throughout.

As to `Cc1ccc(C2SCC(=O)N2c2ccc(OCC(=O)N/N=C3\C(=O)N(CN4CCCCC4)c4ccccc43)c3ncccc23)cc1` (stereo unspecified), the zone of inhibition at 100 µg/mL in the assay on Staphylococcus aureus, with Pseudomonas aeruginosa [1], in the assay on Escherichia coli and in the assay with Bacillus cereus was 6 to 19 mm in each case.

For `Cc1nc2ccccc2cc1C(=O)N/N=C1\C(=O)Nc2cc(Cl)cc(Cl)c21`, the zone of inhibition at 100 µg/mL in the assay on Staphylococcus aureus, in the assay with Pseudomonas aeruginosa [1], with Escherichia coli and in the assay on Bacillus cereus was 6 to 19 mm in each case.

For `O=C(COc1ccc(N2C(=O)CSC2c2ccccc2)c2cccnc12)N/N=C1\C(=O)N(CN2CCOCC2)c2ccccc21` (stereo unspecified), the zone of inhibition at 100 µg/mL in the assay on Staphylococcus aureus, in the assay on Pseudomonas aeruginosa [1], with Escherichia coli and in the assay on Bacillus cereus was 6 to 19 mm each time.

As for `Cc1nc2ccccc2cc1C(=O)N/N=C1\C(=O)Nc2cccc(Cl)c21`, the zone of inhibition at 100 µg/mL in the assay on Staphylococcus aureus, in the assay with Pseudomonas aeruginosa [1], with Escherichia coli and in the assay with Bacillus cereus was 6 to 19 mm each time.

On to `O=C(COc1ccc(N2C(=O)CSC2c2ccc(Cl)cc2)c2cccnc12)N/N=C1\C(=O)N(CN2CCCCC2)c2ccccc21` (stereo unspecified), for which the zone of inhibition at 100 µg/mL with Staphylococcus aureus, in the assay on Pseudomonas aeruginosa [1], in the assay with Escherichia coli and with Bacillus cereus was 6 to 19 mm in each case.

In the case of `O=C(COc1ccc(N2C(=O)CSC2c2ccc([N+](=O)[O-])cc2)c2cccnc12)N/N=C1\C(=O)N(CN2CCCCC2)c2ccccc21` (stereo unspecified), the zone of inhibition at 100 µg/mL with Staphylococcus aureus, in the assay with Pseudomonas aeruginosa [1], in the assay on Escherichia coli and in the assay on Bacillus cereus was 6 to 19 mm throughout.

Consider `Cc1nc2ccccc2cc1C(=O)N/N=C1\C(=O)Nc2ccc(F)cc21`, for which the zone of inhibition at 100 µg/mL with Staphylococcus aureus, in the assay on Pseudomonas aeruginosa [1], in the assay with Escherichia coli and in the assay on Bacillus cereus was 6 to 19 mm throughout.
